Measured values from patent US20260284065A1, “PHARMACEUTICAL COMPOSITION FOR PREVENTION OR TREATMENT OF CANCER FOR OVERCOMING RESISTANCE TO IMMUNE CHECKPOINT INHIBITORS” (AJOU UNIVERSITY INDUSTRY-ACADEMIC COOPERATION FOUNDATION, priority 2023, published 2026).

Tested on: mouse gastric cancer cell line YTN16
Test: YTN16 syngeneic mouse model: subcutaneous tumor size and tumor weight
Type: in vivo
Experimental: The experiment was conducted by dividing the mice into a control group (Control), a group administered with Comparative Example 1 (Anti-PD-1), a group administered with Comparative Example 2 (CCB-3233), and a group administered with Example 1 (Anti-PD-1+CCB-3233), and eight mouse models were used for each group.
Comparative Example 1 (Anti-PD-1) was diluted in 1×PBS at a concentration of 10 mg/kg and administered intraperitoneally to the mice, Comparative Example 2 (CCB-3233) was orally administered to the mice at a concentration of 50 mg/kg by dissolving 5% DMSO+5% CMC-NA in 1×PBS, and Example 1 (Anti-PD-1+CCB-3233) was diluted and prepared in different solvents as in Comparative Examples 1 and 2, and then administered sequentially.

## COc1cc2c(Oc3ccc(Nc4nn(C)cc4C(=O)NC4CCCCC4)cc3F)ccnc2cc1OCCCN1CCOCC1 [Comparative Example 2]
CCB-3233 administered together with the immune checkpoint inhibitor to YTN 16 syngeneic mice resistant to the immune checkpoint inhibitor
  therapeutic effect of the immune checkpoint inhibitor: enhanced
YTN16 syngeneic mice, anti-PD-1 10 mg/kg intraperitoneally, CCB-3233 50 mg/kg orally, compared between groups
  tumor weight (FIG. 2): no significant difference in tumor weight from the control group
